From patent publication US7615542B2, “Dioxolane thymine and combinations for use against 3TC/AZT resistant strains of HIV” (priority 2002, dated 2009)

Columns and labels:
HIV-1 isolate 5705-0 = test: Anti-HIV efficacy in PBMC, isolate 5705-0; format: cell-based; conditions: for IC50: Human immunodeficiency virus 1, PBMC, isolate 5705-0 (pre-treatment), read-out: Drug (IC50)
Method: (§1) The following Tables 2 and 3, set forth below, describe the HIV resistant strains genotypically (Table 2) and phenotypically (Table 3) which were used in the experiments to test activity.
(§2) Each of the three test compounds were tested for efficacy against the various strains of HIV-1. Anti-HIV efficacy was evaluated in PBMC, reverse transcriptase activity was tested in a microtiter plate-based reverse transciptase assay (Buckeit, et al., AIDS Research and Human Retroviruses, 7:295-302, 1991), MTS staining was used for determining cell viability. […] Table 5 presents a resistance phenotype comparison for compounds of the present invention versus the compounds 3TC and AZT.
(§3) The compounds were also evaluated in a parallel assay for cytotoxicity in uninfected PBM cells.

HIV-1 isolate 5705-72 = test: Anti-HIV efficacy in PBMC, isolate 5705-72; format: cell-based; conditions: for IC50: Human immunodeficiency virus 1, PBMC, isolate 5705-72 (post-treatment), read-out: Drug (IC50)
Method: as §1
(§4) Each of the three test compounds were tested for efficacy against the various strains of HIV-1. Anti-HIV efficacy was evaluated in PBMC, reverse transcriptase activity was tested in a microtiter plate-based reverse transciptase assay (Buckeit, et al., AIDS Research and Human Retroviruses, 7:295-302, 1991), MTS staining was used for determining cell viability.
as §3

HIV-1 isolate 488-0 = test: Anti-HIV efficacy in PBMC, isolate 488-0; format: cell-based; conditions: for IC50: Human immunodeficiency virus 1, PBMC, isolate 488-0 (pre-treatment), read-out: Drug (IC50)
Method: as §1, §2, §3

HIV-1 isolate 488-101 = test: microbe, parasite or virus in culture; format: cell-based; conditions: for IC50: Human immunodeficiency virus 1, PBMC, isolate 488-101 (post-treatment), read-out: Drug (IC50); for Phenotype for 488-101: resistance phenotype comparison, Table 5
Method: as §1, §4, §3

HIV-1 isolate LAI = test: Anti-HIV efficacy in PBMC, isolate LAI; format: cell-based; conditions: for IC50: Human immunodeficiency virus 1, PBMC, read-out: Drug (IC50)
Method: as §1, §2, §3

HIV-1 isolate LAI M184V = test: Anti-HIV efficacy in PBMC, isolate LAI M184V; format: cell-based; conditions: for Phenotype for LAI M184V: resistance phenotype comparison, Table 5
Method: as §1, §4, §3

HIV-1 isolate H112-2 = test: Anti-HIV efficacy in PBMC, isolate H112-2; format: cell-based; conditions: for IC50: Human immunodeficiency virus 1, PBMC, isolate H112-2 (pre-treatment), read-out: Drug (IC50)
Method: as §1, §2, §3

HIV-1 isolate G910-6 = test: Anti-HIV efficacy in PBMC, isolate G910-6; format: cell-based; conditions: for IC50: Human immunodeficiency virus 1, PBMC, isolate G910-6 (post-treatment), read-out: Drug (IC50); for Phenotype for G910-6: resistance phenotype comparison, Table 5
Method: as §1, §4, §3

[1] = system: panel of HIV-1 3TC/AZT drug sensitive/resistant matched pair virus isolates; test: Standardized PBMC cell-based anti-HIV assay, matched pair panel; conditions: AZT and/or 3TC resistant isolates
Method: as §4, §3

[2] = system: mutations 65R, 74V, 184V, and 115F in the RT gene; conditions: mutants harboring 2 or 3 of these mutations; cited from earlier work

SMILES	IC50 (HIV-1 isolate 5705-0)	IC50 (HIV-1 isolate 5705-72)	IC50 (HIV-1 isolate 488-0)	IC50 (HIV-1 isolate 488-101)	IC50 (HIV-1 isolate LAI)	Phenotype for LAI M184V (HIV-1 isolate LAI M184V)	IC50 (HIV-1 isolate H112-2)	IC50 (HIV-1 isolate G910-6)	Phenotype for G910-6 (HIV-1 isolate G910-6)	Phenotype for 488-101 (HIV-1 isolate 488-101)	Cross-resistance / resistance profile [1]	further results
Cc1cn([C@H]2C[C@H](N=[N+]=[N-])[C@@H](CO)O2)c(=O)[nH]c1=O [AZT, 3′-Azido-3′-deoxythymidine]	3 to 8 nM	30 nM	0.3 to 0.6 nM	80 nM	20 nM	Sensitive (<5 fold resistance, Sensitive)	10 nM	620 nM	Resistant (>5 fold resistance, Resistant)	–	–	Phenotype (HIV-1 isolate 5705-0; isolate 5705-0, Table 3): Sensitive; Phenotype (HIV-1 isolate 488-0; isolate 488-0, Table 3): Sensitive; Phenotype (HIV-1 isolate 488-101; isolate 488-101, Table 3): Resistant; Phenotype (HIV-1 isolate LAI; Table 3): Sensitive; Phenotype (HIV-1 isolate LAI M184V; isolate LAI-M184V, Table 3): Sensitive; Phenotype (HIV-1 isolate H112-2; isolate H112-2, Table 3): Sensitive; Phenotype (HIV-1 isolate G910-6; isolate G910-6, Table 3): Resistant
Nc1ccn([C@@H]2CS[C@H](CO)O2)c(=O)n1 [3TC, Lamivudine]	4 to 9 nM	> 50000 nM	30 to 47 nM	40600 nM	10 nM	–	170 nM	320 nM	Sensitive (<5 fold resistance, Sensitive)	Resistant (>5 fold resistance, Resistant)	–	IC50 (HIV-1 isolate LAI M184V; Human immunodeficiency virus 1, PBMC, isolate LAI-M184V, read-out: Drug (IC50)): > 50000 nM
Nc1nc2c(ncn2[C@H]2CO[C@@H](CO)O2)c(=O)[nH]1 [DXG, beta-D-9-(5-hydroxymethyl-dioxolanyl-2-yl)guanine]	–	–	–	–	–	Resistant (>5 fold resistance, Resistant)	–	–	Sensitive (<5 fold resistance, Sensitive)	Sensitive (<5 fold resistance, Sensitive)	resistance profile similar to that of 3TC	–
Nc1nc(NC2CC2)c2ncn([C@H]3C=C[C@@H](CO)C3)c2n1 [abacavir, Abacavir]	–	–	–	–	–	–	–	–	–	–	–	resistance to the drug [2]: approximately 10 fold
Nc1nc(N)c2ncn(C3COC(CO)O3)c2n1 [DAPD, beta-D-9-(5-hydroxymethyl-dioxolanyl-2-yl)-2,4-diamino-purine]	–	–	–	–	–	Sensitive (<5 fold resistance, Sensitive)	–	–	Sensitive (<5 fold resistance, Sensitive)	Sensitive (<5 fold resistance, Sensitive)	resistance profile similar to AZT	Resistance phenotype (HIV-1 isolate 5705-72; resistance phenotype comparison, Table 5): Resistant (>5 fold resistance, Resistant)
